Assay results taken from US20100285959A1, “HERBICIDAL MIXTURES” (priority 2006, published 2010).

Key:
corn (ZEAMD) = experiment: Test 28 greenhouse, post- and preemergence; type: in vivo, Zea mays ssp. indentata; conditions: 26 DAA
Experimental: (§1) A greenhouse test was conducted to evaluate the effects on the plant species corn (ZEAMD, Zea mays ssp. indentata), sorghum (SORVU, Sorghum vulgare L.), dry-seeded rice (ORYSA, Oryza sativa L.), wheat (TRZAW, Triticum aestivum L.), ivyleaf morningglory (IPOHE, Ipomoea hederacea (L.) JACQ.), and barnyardgrass (ECHCG, Echinochloa crus-galli (L.) P. BEAUV.), of mixtures of Compound 2 with isoxadifen-ethyl. Corn, sorghum, rice, wheat, ivyleaf morningglory and barnyardgrass seeds were planted in RediEarth, a commercial potting medium. […] Corn plants were treated postemergence at the V2 growth stage, and sorghum, rice, wheat, ivyleaf morningglory, and barnyardgrass plants were treated postemergence at the 3-leaf stage. […] Each treatment was replicated three times. […] Plants were watered as needed.

barnyardgrass (ECHCG) [1] = experiment: Test 28 greenhouse, postemergence; type: in vivo, Echinochloa crus-galli; conditions: 26 DAA
Experimental: as §1

[2] = tested on: ivyleaf morningglory (IPOHE); experiment: Test 28 greenhouse, postemergence; type: in vivo, Ipomoea hederacea; conditions: 26 DAA
Experimental: as §1

rice (ORYSA) = experiment: Test 32 greenhouse, simulated flooded rice culture; type: in vivo, Oryza sativa; conditions: postemergence to flood, 21 DAA
Experimental: (§2) A greenhouse trial was conducted to evaluate the effects of Compound 1 and isoxadifen-ethyl at different ratios in simulated flooded rice culture. Plastic pots (11-cm diameter) were partially filled with non-sterilized Tama silt loam soil containing a 15:57:28 ratio of sand, silt and clay and 2.9% organic matter. Seeds of Heteranthera limosa (ducksalad; HETLI), Cyperus difformis (smallflower umbrella sedge; CYPDI), one stand of Echinochloa crus-galli (barnyardgrass; ECHCG), and one stand of four rice seedlings (Oryza sativa cv. ‘M202’; ORYSA) were planted into a single 11-cm diameter pot for each rate and mixture of rates. To obtain this planting, C. difformis and H. limosa seeds were planted separately on the surface soil layer at particular locations within each pot. Water levels were brought to a puddled condition above the soil surface directly after planting. E. crus-galli and rice seeds were planted in cavity trays in the silt loam soil and transplanted at the 1.5 and 2.0 leaf stage, respectively. E. crus-galli and rice plants were transplanted to about 2-cm depth by transferring plugs from the cavity trays. Plantings were sequential so that these plant species all reached the 2.0- to 2.5-leaf stage in the 11-cm diameter pot at time of treatment. Plantings were established and maintained in a greenhouse with day and night temperatures of about 29.5 and 26.7° C. respectively; supplemental balanced lighting was provided to maintain a 16-hour photoperiod. Pots were fertilized periodically with a 200 ppm solution of commercial Scotts Peters® Professional® General Purpose 20-20-20 Water Soluble Fertilizer, amended to 10 ppm with a commercial iron-chelate micronutrient fertilizer. The solution was supplied at time of watering via a liquid fertilizer injector.
(§3) At treatment time, test pots were flooded to 3 cm above the soil surface and maintained at that water depth for the duration of the test. Chemical treatments were formulated in acetone and applied directly to the paddy water (i.e., postemergence to flood). Make-up volumes of acetone were added to ensure that all pots were treated with a consistent volume. Test pots were maintained in the greenhouse. A randomized complete block design was employed. Five replicates of each treatment, alone and in mixture, were used. Each species was visually evaluated for treatment effects by comparing those treated to untreated controls and rated for plant response after 21 days.

[3] = tested on: smallflower umbrella sedge (CYPDI); experiment: Test 32 greenhouse, simulated flooded rice culture; type: in vivo, Cyperus difformis; conditions: postemergence to flood, 21 DAA
Experimental: as §2, §3

wheat (TRZAW) = experiment: Test 28 greenhouse, post- and preemergence; type: in vivo, Triticum aestivum; conditions: 26 DAA
Experimental: as §1

barnyardgrass (ECHCG) [4] = experiment: Test 32 greenhouse, simulated flooded rice culture; type: in vivo, Echinochloa crus-galli; set-up: scale not given here; conditions: postemergence to flood, 21 DAA
Experimental: as §2, §3

dry-seeded rice (ORYSA) = experiment: Test 28 greenhouse, postemergence; type: in vivo, Oryza sativa; conditions: 26 DAA
Experimental: as §1

ducksalad (HETLI) = experiment: Test 32 greenhouse, simulated flooded rice culture; type: in vivo, Heteranthera limosa; set-up: scale not given here; conditions: postemergence to flood, 21 DAA
Experimental: as §2, §3

sorghum (SORVU) = experiment: Test 28 greenhouse, postemergence; type: in vivo, Sorghum vulgare; conditions: 26 DAA
Experimental: as §1

wild oat (AVEFA) = experiment: Test 4 field trial, postemergence; type: in vivo, Avena fatua; set-up: scale not given here; conditions: clodinafop 56 or fenoxaprop 90 g a.i./ha alone
Experimental: (§4) A field trial was conducted to evaluate the effects of mixtures of Compound 2 with commercial herbicides on spring wheat (TRZAS, Triticum aestivum L.) and several weed species. Wheat seeds (cv. ‘AC Intrepid’) were planted in late spring season, 3.8 cm deep in a loam soil having 2.7% organic matter and a pH of 7. Plots were 6 m long by 2.5 m wide. The field was managed using no-till practices. The plots were arranged in a randomized complete block design with each treatment being replicated four times. Treatments were applied postemergence 25 days after planting using a backpack sprayer delivering a spray volume of 55 L/ha using a pressure of 276 kPa. […] Compound 2 and clodinafop treatments, alone and in combination, also included a surfactant. Weed species present in the experimental plots in sufficient quantity to be evaluated included wild oat (AVEFA, Avena fatua L.), common lambsquarters (CHEAL, Chenopodium album L.), kochia (KCHSC, Kochia scoparia (L.) Schrad.), wild buckwheat (POLCO, Polygonum convolvulus L.), Russian thistle (SASKR, Salsola kali L. ssp. ruthenica (Iljin) Soo), and field pennycress (THLAR, Thlaspi arvense L.). […] Common lambsquarters was evaluated only at 14 days after application. […] Results are the means of the four replicates.

[5] = tested on: common lambsquarters (CHEAL); experiment: Test 4 field trial, postemergence; type: in vivo, Chenopodium album; conditions: clodinafop 56 or fenoxaprop 90 g a.i./ha alone
wild buckwheat (POLCO) = experiment: Test 4 field trial, postemergence; type: in vivo, Polygonum convolvulus; conditions: clodinafop 56 or fenoxaprop 90 g a.i./ha alone
Experimental: as §4

spring wheat (TRZAS) = experiment: Test 4 field trial, postemergence; conditions: clodinafop 56 or fenoxaprop 90 g a.i./ha alone
Experimental: as §4

Russian thistle (SASKR) = experiment: Test 4 field trial, postemergence; type: in vivo, Salsola kali; set-up: scale not given here; conditions: clodinafop 56 or fenoxaprop 90 g a.i./ha alone
Experimental: as §4

field pennycress (THLAR) = experiment: Test 4 field trial, postemergence; type: in vivo, Thlaspi arvense; set-up: scale not given here; conditions: clodinafop 56 or fenoxaprop 90 g a.i./ha alone
Experimental: as §4

[6] = postemergence, Isoxadifen-ethyl 64 g a.i./ha
[7] = postemergence, Isoxadifen-ethyl 128 g a.i./ha
[8] = postemergence, Isoxadifen-ethyl 256 g a.i./ha
[9] = postemergence, Isoxadifen-ethyl 512 g a.i./ha
[10] = postemergence, Isoxadifen-ethyl 1024 g a.i./ha
[11] = preemergence, Isoxadifen-ethyl 64 g a.i./ha
[12] = preemergence, Isoxadifen-ethyl 128 g a.i./ha
[13] = preemergence, Isoxadifen-ethyl 256 g a.i./ha
[14] = preemergence, Isoxadifen-ethyl 512 g a.i./ha
[15] = preemergence, Isoxadifen-ethyl 1024 g a.i./ha
[16] = Isoxadifen-ethyl 1024 g a.i./ha
[17] = Isoxadifen-ethyl 31.25 g a.i./ha
[18] = Isoxadifen-ethyl 62.5 g a.i./ha
[19] = Isoxadifen-ethyl 1000 g a.i./ha
[20] = Isoxadifen-ethyl 1500 g a.i./ha

## CCOC(=O)C1=NOC(c2ccccc2)(c2ccccc2)C1 [Isoxadifen-ethyl]
Corn (ZEAMD); [6]
  ZEAMD Obs: 0
Corn (ZEAMD); [7]
  ZEAMD Obs: 0
Corn (ZEAMD); [8]
  ZEAMD Obs: 0
Corn (ZEAMD); [9]
  ZEAMD Obs: 0
Corn (ZEAMD); [10]
  ZEAMD Obs: 0
Corn (ZEAMD); [11]
  ZEAMD Obs: 0
Corn (ZEAMD); [12]
  ZEAMD Obs: 0
Corn (ZEAMD); [13]
  ZEAMD Obs: 0
Corn (ZEAMD); [14]
  ZEAMD Obs: 0
Corn (ZEAMD); [15]
  ZEAMD Obs: 0
Barnyardgrass (ECHCG) [1]; Isoxadifen-ethyl 64 g a.i./ha
  ECHCG Obs: 0
Barnyardgrass (ECHCG) [1]; Isoxadifen-ethyl 128 g a.i./ha
  ECHCG Obs: 0
Barnyardgrass (ECHCG) [1]; Isoxadifen-ethyl 256 g a.i./ha
  ECHCG Obs: 0
Barnyardgrass (ECHCG) [1]; Isoxadifen-ethyl 512 g a.i./ha
  ECHCG Obs: 0
Barnyardgrass (ECHCG) [1]; [16]
  ECHCG Obs: 0
[2]; Isoxadifen-ethyl 64 g a.i./ha
  IPOHE Obs: 0
[2]; Isoxadifen-ethyl 128 g a.i./ha
  IPOHE Obs: 0
[2]; Isoxadifen-ethyl 256 g a.i./ha
  IPOHE Obs: 0
[2]; Isoxadifen-ethyl 512 g a.i./ha
  IPOHE Obs: 0
[2]; [16]
  IPOHE Obs: 0
Rice (ORYSA); [17]
  ORYSA Obs: 2%
Rice (ORYSA); [18]
  ORYSA Obs: 5%
Rice (ORYSA); Isoxadifen-ethyl 125 g a.i./ha
  ORYSA Obs: 11%
Rice (ORYSA); Isoxadifen-ethyl 250 g a.i./ha
  ORYSA Obs: 7%
Rice (ORYSA); Isoxadifen-ethyl 500 g a.i./ha
  ORYSA Obs: 5%
Rice (ORYSA); [19]
  ORYSA Obs: 5%
Rice (ORYSA); [20]
  ORYSA Obs: 10%
[3]; [17]
  CYPDI Obs: 28
[3]; [18]
  CYPDI Obs: 24
[3]; Isoxadifen-ethyl 125 g a.i./ha
  CYPDI Obs: 84
[3]; Isoxadifen-ethyl 250 g a.i./ha
  CYPDI Obs: 59
[3]; Isoxadifen-ethyl 500 g a.i./ha
  CYPDI Obs: 49
[3]; [19]
  CYPDI Obs: 53
[3]; [20]
  CYPDI Obs: 59
Wheat (TRZAW); [6]
  TRZAW Obs: 0%
Wheat (TRZAW); [7]
  TRZAW Obs: 0%
Wheat (TRZAW); [8]
  TRZAW Obs: 0%
Wheat (TRZAW); [9]
  TRZAW Obs: 0%
Wheat (TRZAW); [10]
  TRZAW Obs: 0%
Wheat (TRZAW); [11]
  TRZAW Obs: 0%
Wheat (TRZAW); [12]
  TRZAW Obs: 0%
Wheat (TRZAW); [13]
  TRZAW Obs: 0%
Wheat (TRZAW); [14]
  TRZAW Obs: 0%
Wheat (TRZAW); [15]
  TRZAW Obs: 0%
Barnyardgrass (ECHCG) [4]; [17]
  ECHCG Obs: 4
Barnyardgrass (ECHCG) [4]; [18]
  ECHCG Obs: 9
Barnyardgrass (ECHCG) [4]; Isoxadifen-ethyl 125 g a.i./ha
  ECHCG Obs: 15
Barnyardgrass (ECHCG) [4]; Isoxadifen-ethyl 250 g a.i./ha
  ECHCG Obs: 10
Barnyardgrass (ECHCG) [4]; Isoxadifen-ethyl 500 g a.i./ha
  ECHCG Obs: 5
Barnyardgrass (ECHCG) [4]; [19]
  ECHCG Obs: 8
Barnyardgrass (ECHCG) [4]; [20]
  ECHCG Obs: 9
dry-seeded rice (ORYSA); Isoxadifen-ethyl 64 g a.i./ha
  ORYSA Obs: 0
dry-seeded rice (ORYSA); Isoxadifen-ethyl 128 g a.i./ha
  ORYSA Obs: 0
dry-seeded rice (ORYSA); Isoxadifen-ethyl 256 g a.i./ha
  ORYSA Obs: 0
dry-seeded rice (ORYSA); Isoxadifen-ethyl 512 g a.i./ha
  ORYSA Obs: 0
dry-seeded rice (ORYSA); [16]
  ORYSA Obs: 0
Ducksalad (HETLI); [17]
  HETLI Obs: 10
Ducksalad (HETLI); [18]
  HETLI Obs: 29
Ducksalad (HETLI); Isoxadifen-ethyl 125 g a.i./ha
  HETLI Obs: 35
Ducksalad (HETLI); Isoxadifen-ethyl 250 g a.i./ha
  HETLI Obs: 19
Ducksalad (HETLI); Isoxadifen-ethyl 500 g a.i./ha
  HETLI Obs: 23
Ducksalad (HETLI); [19]
  HETLI Obs: 25
Ducksalad (HETLI); [20]
  HETLI Obs: 36
Sorghum (SORVU); Isoxadifen-ethyl 64 g a.i./ha
  SORVU Obs: 0%
Sorghum (SORVU); Isoxadifen-ethyl 128 g a.i./ha
  SORVU Obs: 0%
Sorghum (SORVU); Isoxadifen-ethyl 256 g a.i./ha
  SORVU Obs: 0%
Sorghum (SORVU); Isoxadifen-ethyl 512 g a.i./ha
  SORVU Obs: 0%
Sorghum (SORVU); [16]
  SORVU Obs: 0%

## CC(Oc1ccc(Oc2nc3ccc(Cl)cc3o2)cc1)C(=O)O (stereo not shown) [Fenoxaprop]
Wild oat (AVEFA); 14 DAA
  AVEFA Obs: 96
Wild oat (AVEFA); 35 DAA
  AVEFA Obs: 96
Wild oat (AVEFA); 55 DAA
  AVEFA Obs: 98
[5]; 14 DAA
  CHEAL Obs: 0
[5]; 35 DAA
  CHEAL Obs: 0
Wild buckwheat (POLCO); 14 DAA
  POLCO Obs: 0
Wild buckwheat (POLCO); 35 DAA
  POLCO Obs: 0
Spring wheat (TRZAS); 14 DAA
  TRZAS Obs: 0
Spring wheat (TRZAS); 35 DAA
  TRZAS Obs: 0
Spring wheat (TRZAS); 55 DAA
  TRZAS Obs: 0
Russian thistle (SASKR); 14 DAA
  SASKR Obs: 0
Russian thistle (SASKR); 35 DAA
  SASKR Obs: 0
Field pennycress (THLAR); 14 DAA
  THLAR Obs: 0
Field pennycress (THLAR); 35 DAA
  THLAR Obs: 0
